In US5525627A, “Esters of acyl carnitines with long-chain aliphatic alcohols and pharmaceutical compositions containing same having antimycotic activity” (Sigma-Tau Industrie Farmaceutiche Riunite S.p.A., priority 1992, dated 1996):

Key:
[1] = test system: Candida albicans (ATCC 2091); test: MIC for yeast and yeast-like strains; format: cell-based; conditions: ATCC2091, 48 hours, 35° C., read-out: Minimal Inhibitory Concentration (MIC)
Protocol: (§1) The following strains were used (the number of strains is in brackets): Candida (13); Criptococcus (2); Saccharormyces (1); Torulopsis (1).
(§2) Yeast Nitrogen Base supplemented with 0.15% asparagine and 1.0% glucose (as carbon source) was the medium utilized in the assays.
(§3) This medium was buffered with 0.165 M 2-(N-morpholino) propane sulfonic acid (MOPS), a non-chelating buffer.
(§4) Antimicrob. Agents Cheroother. Aug. 34.8:1542-1545).
(§5) The inoculum was prepared from an overnight broth culture (a 48-hour culture only for Cryptococcus) in Sabouraud broth and appropriately diluted to yield a final suspension containing approximately 5.0×10^6 Colony Forming Units per ml (CFU/ml), when compared to the Mc Farland's standard control (BRAY W. E., Clinical Laboratory Methods, 5th Ed. C. V. MOSBY, St. Louis, Mo, 1957).
(§6) After further diluting (1:50), a […] volume of such fungal suspensions and an equal volume of the substance solutions were distributed into each well of a microtiter plate (96 wells, round bottom). Such a procedure eventually allowed for an "in vitro" antimycotic activity assay utilizing final fungal inocula of approximately 5.0×10^4 CFU/ml.

[2] = test system: Candida albicans (ISS 1); test: MIC for yeast and yeast-like strains; format: cell-based; conditions: 48 hours, 35° C., read-out: Minimal Inhibitory Concentration (MIC)
Protocol: as §1, §2, §3, §4, §5, §6

[3] = test system: Candida tropicalis (ISS 1); test: MIC for yeast and yeast-like strains; format: cell-based; conditions: 48 hours, 35° C., read-out: Minimal Inhibitory Concentration (MIC)
Protocol: as §1, §2, §3, §4, §5, §6

[4] = test system: Candida glabrata (ISS 1); test: MIC for yeast and yeast-like strains; format: cell-based; conditions: Nakaseomyces glabratus; 48 hours, 35° C.; read-out: Minimal Inhibitory Concentration (MIC)
Protocol: as §1, §2, §3, §4, §5, §6

[5] = test system: Candida guilliermondii (ISS 1); test: MIC for yeast and yeast-like strains; format: cell-based; conditions: Meyerozyma guilliermondii; 48 hours, 35° C.; read-out: Minimal Inhibitory Concentration (MIC)
Protocol: as §1, §2, §3, §4, §5, §6

[6] = test system: Cryptococcus neoformans (ISS 1); test: MIC for yeast and yeast-like strains; format: cell-based; conditions: 48 hours, 35° C., read-out: Minimal Inhibitory Concentration (MIC)
Protocol: as §1, §2, §3, §4, §5, §6

[7] = test system: Candida parapsilosis (ISS 1); test: MIC for yeast and yeast-like strains; format: cell-based; conditions: Lodderomyces parapsilosis; 48 hours, 35° C.; read-out: Minimal Inhibitory Concentration (MIC)
Protocol: as §1, §2, §3, §4, §5, §6

[8] = test system: Candida pseudotropicalis (EC 1); test: MIC for yeast and yeast-like strains; format: cell-based; conditions: Kluyveromyces marxianus; 48 hours, 35° C.; read-out: Minimal Inhibitory Concentration (MIC)
Protocol: as §1, §2, §3, §4, §5, §6

[9] = test system: Fusarium sp. (ISS 1); test: MIC for filamentous fungi; format: cell-based; conditions: read-out: Minimal Inhibitory Concentration (MIC)
Source text: (§7) The following strains were used (the number of strains is in brackets): Aspergillus (5); Fusarium (1); Mucor (1); Penicillium (1).
(§8) The tested substances were: ST 712, ST 722, ST 982, ST 983, ST 1000, ST 1001, ST 1032, ST 1033, ST 1034, ST 1036, ST 1037, ST 1038, ST 1050, ST 1051, ST 1052, ST 1053. The assay medium was the same as the one used in the previous study. The conidia from 72-hour cultures in Sabouraud agar, collected by washing with Sabouraud medium and Tween 80 (one drop of Tween per 10 ml of medium), were utilized as inoculum (5.0×10^4 CFU/ml).
(§9) The assay was performed using the same procedure as described for yeast-like fungi.
(§10) Also the evaluation of MIC and MFC was as reported previously.

[10] = test system: Aspergillus fumigatus (2/A); test: MIC for filamentous fungi; format: cell-based; conditions: read-out: Minimal Inhibitory Concentration (MIC)
Source text: as §7, §8, §9, §10

[11] = test system: Aspergillus fumigatus (C/1); test: MIC for filamentous fungi; format: cell-based; conditions: read-out: Minimal Inhibitory Concentration (MIC)
Source text: as §7, §8, §9, §10

[12] = test system: Mucor mucedo (ATCC 7941); test: MIC for filamentous fungi; format: cell-based; conditions: ATCC7941, read-out: Minimal Inhibitory Concentration (MIC)
Source text: as §7, §8, §9, §10

[13] = test system: Aspergillus fumigatus (ATCC 28212); test: MIC for filamentous fungi; format: cell-based; conditions: ATCC28212, read-out: Minimal Inhibitory Concentration (MIC)
Source text: as §7, §8, §9, §10

[14] = test system: Penicillium sp. (1302); test: MIC for filamentous fungi; format: cell-based; conditions: read-out: Minimal Inhibitory Concentration (MIC)
Source text: as §7, §8, §9, §10

[15] = test system: Aspergillus fumigatus (1/A); test: MIC for filamentous fungi; format: cell-based; conditions: read-out: Minimal Inhibitory Concentration (MIC)
Source text: as §7, §8, §9, §10

[16] = test system: Aspergillus niger (ATCC 16404); test: MIC for filamentous fungi; format: cell-based; conditions: ATCC16404, read-out: Minimal Inhibitory Concentration (MIC)
Source text: as §7, §8, §9, §10

[17] = test system: filamentous fungi; test: MIC / MFC for filamentous fungi, all strains; format: cell-based, Aspergillus, Fusarium, Mucor, Penicillium; conditions: versus susceptible strains; read-out: Mean MIC values
Source text: as §7, §8, §9, §10

[18] = test system: yeast-like fungi; test: MIC / MFC for yeast-like fungi, all strains; format: cell-based, Candida, Cryptococcus, Saccharomyces, Torulopsis; conditions: versus susceptible strains; read-out: Mean MIC values
Protocol: as §1, §2
(§11) This medium was buffered with 0.165 M 2-(N-morpholino) propane sulfonic acid (MOPS), a non-chelating buffer. […]
as §5, §6
(§12) The minimal fungicidal concentration was evaluated by spot-transferring onto Petri dishes, containing Sabouraud agar, 0.01-ml volumes of all the samples showing no visible fungal growth.

[19] = test system: Torulopsis candida (D.S.); test: MIC for yeast and yeast-like strains; format: cell-based; conditions: Suzukiozyma candida; 48 hours, 35° C.; read-out: Minimal Inhibitory Concentration (MIC)
Protocol: as §1, §2, §11, §5, §6

[20] = test system: Cryptococcus neoformans (4711); test: MIC for yeast and yeast-like strains; format: cell-based; conditions: 48 hours, 35° C., read-out: Minimal Inhibitory Concentration (MIC)
Protocol: as §1, §2, §11, §5, §6

[21] = test system: Candida albicans (562); test: MIC for yeast and yeast-like strains; format: cell-based; conditions: 48 hours, 35° C., read-out: Minimal Inhibitory Concentration (MIC)
Protocol: as §1, §2, §11, §5, §6

[22] = test system: Candida albicans (A 54); test: MIC for yeast and yeast-like strains; format: cell-based; conditions: 48 hours, 35° C., read-out: Minimal Inhibitory Concentration (MIC)
Protocol: as §1, §2, §11, §5, §6

[23] = test system: Candida krusei (ISS 1); test: MIC for yeast and yeast-like strains; format: cell-based; conditions: Pichia kudriavzevii; 48 hours, 35° C.; read-out: Minimal Inhibitory Concentration (MIC)
Protocol: as §1, §2, §11, §5, §6

[24] = test system: Candida tropicalis (5705); test: MIC for yeast and yeast-like strains; format: cell-based; conditions: 48 hours, 35° C., read-out: Minimal Inhibitory Concentration (MIC)
Protocol: as §1, §2, §11, §5, §6

[25] = test system: Saccharomyces cerevisiae (ATCC 7752); test: MIC for yeast and yeast-like strains; format: cell-based; conditions: ATCC7752, 48 hours, 35° C., read-out: Minimal Inhibitory Concentration (MIC)
Protocol: as §1, §2, §11, §5, §6

[26] = test system: Candida albicans (Ca 2); test: MIC for yeast and yeast-like strains; format: cell-based; conditions: 48 hours, 35° C., read-out: Minimal Inhibitory Concentration (MIC)
Protocol: as §1, §2, §11, §5, §6

[27] = test system: Candida albicans (PG); test: MIC and MFC for yeast and yeast-like strains; format: cell-based; conditions: 48 hours, 35° C., read-out: Minimal Inhibitory Concentration (MIC)
Protocol: as §1, §2, §3, §4, §5, §6, §12

Structure (SMILES) | MIC [1] | MIC [2] | MIC [3] | MIC [4] | MIC [5] | MIC [6] | MIC [7] | MIC [8] | MIC [9] | MIC [10] | MIC [11] | MIC [12] | MIC [13] | MIC [14] | MIC [15] | MIC [16] | MIC [17] | MIC [18] | MIC [19] | MIC [20] | also measured
CCCCCCCCCCCCCCCCOC(=O)C[C@H](C[N+](C)(C)C)OC(=O)CC(C)C [ST 1001] | 6.25 µg/mL | 12.5 µg/mL | 12.5 µg/mL | 6.25 µg/mL | 6.25 µg/mL | 3.12 µg/mL | 6.25 µg/mL | 12.5 µg/mL | 12.5 µg/mL | 6.25 µg/mL | 6.25 µg/mL | > 100 µg/mL | 6.25 µg/mL | 6.25 µg/mL | 6.25 µg/mL | 12.5 µg/mL | 7.03 µg/mL | 6.24 µg/mL | 6.25 µg/mL | 1.56 µg/mL | MIC [21]: 3.12 µg/mL; MIC [22]: 3.12 µg/mL; MIC [23]: 6.25 µg/mL; MIC [24]: 6.25 µg/mL; MIC [25]: 6.25 µg/mL; MIC [26]: 3.12 µg/mL; MIC [27]: 6.25 µg/mL
CCCCCCCCCCCOC(=O)C[C@H](C[N+](C)(C)C)OC(=O)CCC(C)C [ST 1034] | 1.56 µg/mL | 1.56 µg/mL | 3.12 µg/mL | 3.12 µg/mL | 6.25 µg/mL | 3.12 µg/mL | 6.25 µg/mL | 6.25 µg/mL | 3.12 µg/mL | 3.12 µg/mL | 6.25 µg/mL | 12.5 µg/mL | 6.25 µg/mL | 3.12 µg/mL | 6.25 µg/mL | 6.25 µg/mL | 5.85 µg/mL | 3.03 µg/mL | 3.12 µg/mL | 1.56 µg/mL | MIC [21]: 1.56 µg/mL; MIC [22]: 1.56 µg/mL; MIC [23]: 1.56 µg/mL; MIC [24]: 3.12 µg/mL; MIC [25]: 3.12 µg/mL; MIC [26]: 1.56 µg/mL; MIC [27]: 3.12 µg/mL
CCCCCCCCCCCOC(=O)C[C@H](C[N+](C)(C)C)OC(=O)CCCCCC [ST 1036] | 1.56 µg/mL | 1.56 µg/mL | 3.12 µg/mL | 3.12 µg/mL | 6.25 µg/mL | 3.12 µg/mL | 6.25 µg/mL | 6.25 µg/mL | 3.12 µg/mL | 6.25 µg/mL | 3.12 µg/mL | 6.25 µg/mL | 3.12 µg/mL | 3.12 µg/mL | 6.25 µg/mL | 3.12 µg/mL | 4.29 µg/mL | 2.84 µg/mL | 3.12 µg/mL | 1.56 µg/mL | MIC [21]: 1.56 µg/mL; MIC [22]: 1.56 µg/mL; MIC [23]: 1.56 µg/mL; MIC [24]: 3.12 µg/mL; MIC [25]: 3.12 µg/mL; MIC [26]: 1.56 µg/mL; MIC [27]: 3.12 µg/mL
CCCCCCCCCCCCOC(=O)C[C@H](C[N+](C)(C)C)OC(=O)C(C)C [ST 1038] | 3.12 µg/mL | 6.25 µg/mL | 3.12 µg/mL | 6.25 µg/mL | 6.25 µg/mL | 3.12 µg/mL | 6.25 µg/mL | 6.25 µg/mL | 6.25 µg/mL | 12.5 µg/mL | 6.25 µg/mL | 25 µg/mL | 12.5 µg/mL | 12.5 µg/mL | 12.5 µg/mL | 12.5 µg/mL | 12.5 µg/mL | 4.4 µg/mL | 6.25 µg/mL | 1.56 µg/mL | MIC [21]: 3.12 µg/mL; MIC [22]: 3.12 µg/mL; MIC [23]: 3.12 µg/mL; MIC [24]: 3.12 µg/mL; MIC [25]: 6.25 µg/mL; MIC [26]: 1.56 µg/mL; MIC [27]: 6.25 µg/mL
